Laboratory results as given in patent US20260001893A1, “SMALL MOLECULE MODULATORS OF STAT6” (Gilead Sciences, Inc., priority 2024, published 2026).

System: Eotaxin-3 (CCL26) release in human whole blood stimulated with IL-4
Assay: Human whole blood eotaxin-3 assay (IL-4 stimulated eotaxin-3 release)
Type: cell-based
Details: human whole blood stimulated with recombinant human IL-4, 48 h, geometric mean; for EC50: inhibition of eotaxin-3 release, given for test compounds with >80% Emax; for Emax: given for test compounds with <80% Emax
Experimental: Human Whole Blood Eotaxin-3 Assay
This was a human whole blood assay using recombinant human Interleukin 4 to stimulate the blood and measuring the ability of the test compounds to inhibit eotaxin-3 release. The biological activities of the test compounds have been tested in human whole blood stimulated with IL-4 measuring Eotaxin-3 release. The test compounds were added to 384 well clear flat-bottom plate in a 4-fold serial dilution in triplicates using a liquid handler. Human whole blood stabilized in lithium-heparin tubes was added in a volume of 65 μL per well, resulting in a final DMSO concentration of 0.5%. The plate is incubated for 2 h at 37° C. under 5% CO2/95% air. Subsequently, 5 μL of recombinant human IL-4 (R&D Systems, cat #204-ILB) was added to the wells to a final concentration of […]. The plate was incubated for 48 h at 37° C. under 5% CO2/95% air. The plate was spun down for 10 minutes at 500×g and 20 μL supernatant was harvested and transferred to a 384 well v-bottom plate using a liquid handler and stored at −20° C. until further analysis. 10 μL supernatant was used to measure the level of Eotaxin-3 (CCL26) using Human Eotaxin-3 MSD kit from Mesocsale (Cat #K251UEK-4). The assay was performed according to the manufacture instructions.
The data from the human whole blood eotaxin-3 assay is shown below for Examples 1ab3, 1ab6, 1d23, and 1d4 (where the effect in % is plotted against the test concentration in M on a log-scale).

Structure (SMILES)	EC50 (Homo sapiens, 48 h)	also measured
CNc1ccn(-c2ccnc3c2cc(CN2CC[C@@H](c4ccc(C(=O)N(C)C)cc4)C[C@H]2C)n3C)c(=O)c1 (single isomer, unassigned) [Example 1d42]	150 nM	
Cc1cc(C(=O)N(C)C)ccc1C1=CCN([C@H](C)c2cc3c(-n4ccc(N)c(F)c4=O)ccnc3n2C)CC1 [Example 1m86, (R)-4-(1-(1-(4-(4-amino-3-fluoro-2-oxopyridin-1 (2H)-yl)-1-methyl-1H-pyrrolo[2,3-b]pyridin-2-yl)ethyl)-1,2,3,6-tetrahydropyridin-4-yl)-N,N,3-trimethylbenzamide]	672 nM	
CNc1ccn(-c2ccnc3c2cc([C@@H](C)N2CC[C@H](c4c(C)cc(C(=O)N(C)C)cc4F)C(F)(F)C2)n3C)c(=O)c1 (single isomer, unassigned) [Example 1m144]	2170 nM	
CNc1ccn(-c2ccnc3c2cc([C@@H](C)N2CC[C@H](c4c(C)cc(C(=O)N(C)C)cc4F)C(F)(F)C2)n3C)c(=O)c1 (single isomer, unassigned) [Example 1m141]		EC50: 610 nM
CNc1ccn(-c2ccnc3c2cc(CN2CCC(c4ccc(C(=O)N(C)C)cc4)C[C@H]2C)n3C)c(=O)c1 (stereo in doubt) [Example 1d41, N,N-dimethyl-4-[(2R,4S)-2-methyl-1-[[1-methyl-4-[4-(methylamino)-2-oxo-1-pyridyl]pyrrolo[2,3-b]pyridin-2-yl]methyl]-4-piperidyl]benzamide]	279 nM	
CNc1ccn(-c2ccnc3c2cc(CN2CC=C(c4c(C)cc(C(=O)N(C)C)cc4F)CC2)n3C)c(=O)c1C [Example 1m104, 3-fluoro-N,N,5-trimethyl-4-(1-((1-methyl-4-(3-methyl-4-(methylamino)-2-oxopyridin-1 (2H)-yl)-1H-pyrrolo[2,3-b]pyridin-2-yl)methyl)-1,2,3,6-tetrahydropyridin-4-yl)benzamide]	156 nM	
[2H]C([2H])([2H])N(C(=O)c1ccc(C2CCN([C@@H](C)c3cc4c(-n5c(F)cc(NC)cc5=O)ccnc4n3C)CC2)cc1)C([2H])([2H])[2H] [Example 1m97, 4-(1-((1S)-1-(4-(6-fluoro-4-(methylamino)-2-oxopyridin-1 (2H)-yl)-1-methyl-1H-pyrrolo[2,3-b]pyridin-2-yl)ethyl)piperidin-4-yl)-N,N-bis(methyl-d3)benzamide]		Emax (Homo sapiens, 48 h): 10 to 20%
CNc1ccn(-c2ccnc3[nH]c(C(C)N4CC=C(c5c(C)cc(C(=O)N(C)C)cc5F)CC4)cc23)c(=O)c1 (centres unmarked) [Example 1m85, 3-fluoro-N,N,5-trimethyl-4-(1-(1-(4-(4-(methylamino)-2-oxopyridin-1 (2H)-yl)-1H-pyrrolo[2,3-b]pyridin-2-yl)ethyl)-1,2,3,6-tetrahydropyridin-4-yl)benzamide]	128 nM	
C[C@H](c1cc2c(-n3ccc4c(c3=O)CCN4)ccnc2n1C)N1CC=C(c2c(F)cc(C(=O)N(C)C)cc2F)CC1 [Example 1m123, (R)-3,5-difluoro-N,N-dimethyl-4-(1-(1-(1-methyl-4-(4-oxo-1,2,3,4-tetrahydro-5H-pyrrolo[3,2-c]pyridin-5-yl)-1H-pyrrolo[2,3-b]pyridin-2-yl)ethyl)-1,2,3,6-tetrahydropyridin-4-yl)benzamide]	211 nM	
Cc1cc(C(=O)N(C)C)cc(F)c1C1CCN([C@H](C)c2cc3c(-n4ccc5c(c4=O)CCN5)ccnc3n2C)CC1 (single isomer, unassigned) [Example 1m120]		Emax (Homo sapiens, 48 h): 40 to 50%
CNc1c(F)cn(-c2ccnc3c2cc(CN2CCC(c4c(F)cc(C(=O)N(C)C)cc4F)CC2)n3C)c(=O)c1F [Example 1m136, 4-(1-((4-(3,5-difluoro-4-(methylamino)-2-oxopyridin-1 (2H)-yl)-1-methyl-1H-pyrrolo[2,3-b]pyridin-2-yl)methyl)piperidin-4-yl)-3,5-difluoro-N,N-dimethylbenzamide]	48.1 nM	
CN(C)C(=O)c1cc(F)c(C2CCN(Cc3cc4c(-n5cc(F)c(N)c(F)c5=O)ccnc4n3C)CC2)c(F)c1 [Example 1m119, 4-(1-((4-(4-amino-3,5-difluoro-2-oxopyridin-1 (2H)-yl)-1-methyl-1H-pyrrolo[2,3-b]pyridin-2-yl)methyl)piperidin-4-yl)-3,5-difluoro-N,N-dimethylbenzamide]	36.4 nM	
CN(C)C(=O)c1ccc(C2=CCN(Cc3cc4c(-n5ccc6c(c5=O)CCN6)ccnc4n3C)CC2)c(OC(F)(F)F)c1 [Example 1m146, NN-dimethyl-4-(1-((1-methyl-4-(4-oxo-1,2,3,4-tetrahydro-5H-pyrrolo[3,2-c]pyridin-5-yl)-1H-pyrrolo[2,3-b]pyridin-2-yl)methyl)-1,2,3,6-tetrahydropyridin-4-yl)-3-(trifluoromethoxy)benzamide]	156 nM	
[2H]C([2H])([2H])N(C(=O)c1ccc(C2CCN([C@@H](C)c3cc4c(-n5cc(F)c(N)nc5=O)ccnc4n3C)CC2)cc1)C([2H])([2H])[2H] [Example 1m80, (S)-4-(1-(1-(4-(4-amino-5-fluoro-2-oxopyrimidin-1 (2H)-yl)-1-methyl-1H-pyrrolo[2,3-b]pyridin-2-yl)ethyl)piperidin-4-yl)-N,N-bis(methyl-d3)benzamide]	133 nM	

More lines, main results first:

EC50 (Homo sapiens, 48 h)	Structure (SMILES)	also measured
24.2 nM	CN(C)C(=O)c1cc(F)c(C2=CCN(Cc3cc4c(-n5ccc6c(c5=O)CCN6)ccnc4n3C)CC2)c(F)c1 [Example 1m107, 3,5-difluoro-N,N-dimethyl-4-(1-((1-methyl-4-(4-oxo-1,2,3,4-tetrahydro-5H-pyrrolo[3,2-c]pyridin-5-yl)-1H-pyrrolo[2,3-b]pyridin-2-yl)methyl)-1,2,3,6-tetrahydropyridin-4-yl)benzamide]	
6.8 nM	[2H]C([2H])([2H])N(C(=O)c1cc(C)c(C2=CCN(Cc3cc4c(-n5ccc6c(c5=O)CCN6)ccnc4n3C)CC2)c(F)c1)C([2H])([2H])[2H] [Example 1ad7, 3-Fluoro-5-methyl-N,N-bis(methyl-d3)-4-(1-((1-methyl-4-(4-oxo-1,2,3,4-tetrahydro-5H-pyrrolo[3,2-c]pyridin-5-yl)-1H-pyrrolo[2,3-b]pyridin-2-yl)methyl)-1,2,3,6-tetrahydropyridin-4-yl)benzamide]	
24.8 nM	[2H]C([2H])([2H])N(C(=O)c1cc(F)c(C2CCN(Cc3cc4c(-n5ccc6c(c5=O)CCN6)ccnc4n3C)CC2)c(F)c1)C([2H])([2H])[2H] [Example 1m117, 3,5-difluoro-N,N-bis(methyl-d3)-4-(1-((1-methyl-4-(4-oxo-1,2,3,4-tetrahydro-5H-pyrrolo[3,2-c]pyridin-5-yl)-1H-pyrrolo[2,3-b]pyridin-2-yl)methyl)piperidin-4-yl)benzamide]	
6.09 nM	Cc1cc(C(=O)N(C)C)cc(F)c1C1=CCN(Cc2cc3c(-n4ccc(N)cc4=O)ccnc3n2C)CC1 [Example 1ad6, 4-[1-[[4-(4-Amino-2-oxo-1-pyridyl)-1-methyl-pyrrolo[2,3-b]pyridin-2-yl]methyl]-3,6-dihydro-2H-pyridin-4-yl]-3-fluoro-N,N,5-trimethyl-benzamide]	
19.6 nM	[2H]C([2H])([2H])N(C(=O)c1ccc(C2CCN([C@@H](C)c3cc4c(-n5ccc(N)cc5=O)ccnc4n3C)CC2)cc1)C([2H])([2H])[2H] [Example 1af65, (S)-4-(1-(1-(4-(4-amino-2-oxopyridin-1 (2H)-yl)-1-methyl-1H-pyrrolo[2,3-b]pyridin-2-yl)ethyl)piperidin-4-yl)-N,N-bis(methyl-d3)benzamide]	
6.65 nM	[2H]C([2H])([2H])N(C(=O)c1cc(C)c(C2=CCN(Cc3cc4c(-n5ccc(N)c(C)c5=O)ccnc4n3C)CC2)c(F)c1)C([2H])([2H])[2H] [Example 1m94, 4-(1-((4-(4-amino-3-methyl-2-oxopyridin-1 (2H)-yl)-1-methyl-1H-pyrrolo[2,3-b]-pyridin-2-yl)methyl)-1,2,3,6-tetrahydropyridin-4-yl)-3-fluoro-5-methyl-N,N-bis(methyl-d3)benzamide]	
22.5 nM	CNc1cc(=O)n(-c2ccnc3c2cc([C@@H](C)N2CCC(c4c(C)cc(C(=O)N(C)C)cc4F)CC2)n3C)cc1F [Example 1m130, (R)-3-fluoro-4-(1-(1-(4-(5-fluoro-4-(methylamino)-2-oxopyridin-1 (2H)-yl)-1-methyl-1H-pyrrolo[2,3-b]pyridin-2-yl)ethyl)piperidin-4-yl)-N,N,5-trimethylbenzamide]	
17.8 nM	CNC(=O)c1cc(C)c(C2=CCN(Cc3cc4c(-n5ccc(NC)cc5=O)ccnc4n3C)CC2)c(F)c1 [Example 1m75, 3-fluoro-N,5-dimethyl-4-(1-((1-methyl-4-(4-(methylamino)-2-oxopyridin-1 (2H)-yl)-1H-pyrrolo[2,3-b]pyridin-2-yl)methyl)-1,2,3,6-tetrahydropyridin-4-yl)benzamide]	
30 nM	CN(C)C(=O)c1ccc(C2=CCN(Cc3cc4c(-n5ccc6c(c5=O)CCN6)ccnc4n3C)CC2)c(C2CC2)c1 [Example 1m113, cyclopropyl-N-dimethyl-4-(1-((1-methyl-4-(4-oxo-1,2,3,4-tetrahydro-5H-pyrrolo[3,2-c]pyridin-5-yl)-1H-pyrrolo[2,3-b]pyridin-2-yl)methyl)-1,2,3,6-tetrahydropyridin-4-yl)benzamide]	
